Columns and labels:
[1] = molecular target: T1, Broad substrate specificity ATP-binding cassette transporter ABCG2 (Mus musculus, UniProt Q7TMS5); assay: TP_TRANSPORTER: intracellular accumulation in LY and LY/NR2 cells; assay type: functional, cell-based
T1 sequence (Q7TMS5 whole entry): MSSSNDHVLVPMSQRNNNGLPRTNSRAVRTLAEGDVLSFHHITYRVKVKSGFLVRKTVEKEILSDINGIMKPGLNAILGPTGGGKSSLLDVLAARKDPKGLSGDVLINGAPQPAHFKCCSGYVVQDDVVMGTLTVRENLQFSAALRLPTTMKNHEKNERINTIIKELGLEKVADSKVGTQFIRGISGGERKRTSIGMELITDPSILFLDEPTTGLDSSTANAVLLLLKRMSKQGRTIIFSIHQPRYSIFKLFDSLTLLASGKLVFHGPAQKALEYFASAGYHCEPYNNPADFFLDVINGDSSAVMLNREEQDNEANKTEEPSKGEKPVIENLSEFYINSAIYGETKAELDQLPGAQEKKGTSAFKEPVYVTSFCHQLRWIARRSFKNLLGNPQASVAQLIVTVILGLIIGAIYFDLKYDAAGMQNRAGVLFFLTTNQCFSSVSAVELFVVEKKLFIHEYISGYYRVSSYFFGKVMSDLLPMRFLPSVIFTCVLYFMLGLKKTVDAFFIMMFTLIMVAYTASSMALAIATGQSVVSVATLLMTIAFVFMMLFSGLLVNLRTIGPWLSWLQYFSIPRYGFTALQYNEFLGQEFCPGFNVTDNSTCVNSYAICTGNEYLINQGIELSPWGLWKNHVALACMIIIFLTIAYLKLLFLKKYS

[2] = molecular target: T2, Broad substrate specificity ATP-binding cassette transporter ABCG2 (Homo sapiens, UniProt Q9UNQ0); assay: TP_TRANSPORTER: intracellular accumulation in BCRP-transfected PC-13 cells; assay type: functional, cell-based
T2 sequence (Q9UNQ0 whole entry): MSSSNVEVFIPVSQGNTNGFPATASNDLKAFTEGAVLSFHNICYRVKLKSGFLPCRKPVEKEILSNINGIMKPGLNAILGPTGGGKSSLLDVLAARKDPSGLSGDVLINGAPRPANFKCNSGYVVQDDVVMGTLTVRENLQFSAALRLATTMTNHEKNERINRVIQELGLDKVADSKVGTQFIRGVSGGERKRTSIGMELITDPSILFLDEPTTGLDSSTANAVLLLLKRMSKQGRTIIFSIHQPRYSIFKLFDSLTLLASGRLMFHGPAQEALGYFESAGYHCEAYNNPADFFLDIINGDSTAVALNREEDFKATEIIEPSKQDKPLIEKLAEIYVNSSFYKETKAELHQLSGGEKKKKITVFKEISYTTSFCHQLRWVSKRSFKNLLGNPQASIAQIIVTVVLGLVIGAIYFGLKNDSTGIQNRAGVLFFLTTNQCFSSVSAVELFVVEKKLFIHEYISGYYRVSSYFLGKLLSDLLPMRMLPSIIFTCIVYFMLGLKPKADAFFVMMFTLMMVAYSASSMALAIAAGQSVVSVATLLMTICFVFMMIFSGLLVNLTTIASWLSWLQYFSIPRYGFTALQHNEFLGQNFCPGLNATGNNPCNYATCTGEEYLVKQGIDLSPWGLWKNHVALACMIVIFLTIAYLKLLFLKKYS

Activity [1] | SMILES | Activity [2]
substrate [+] | O=CNN1C(=O)c2c(c3c4cccc(O)c4n([C@@H]4O[C@H](CO)[C@@H](O)[C@H](O)[C@H]4O)c3c3[nH]c4c(O)cccc4c23)C1=O | –
– | O=C1c2c(c3c4ccc(O)cc4n([C@@H]4O[C@H](CO)[C@@H](O)[C@H](O)[C@H]4O)c3c3[nH]c4cc(O)ccc4c23)C(=O)N1NC(CO)CO [EDOTECARIN] | substrate [+]
